Laboratory results taken from PMC9645390, “Amphiphilic stilbene derivatives attenuate the neurotoxicity of soluble Aβ42 oligomers by controlling their interactions with cell membranes” (Chemical Science, 2022).
Where two headings read alike, the source gives them in different places.

Legend:
Aβ42 fibrils = target: T1, Aβ42 fibrils (Homo sapiens, UniProt P05067); assay: Fluorescence saturation binding assay with Aβ42 fibrils; conditions: for binding ratio, Fibrils: from cross point between plateau and initial slope
T1 construct: 1 mg of commercial Aβ42 monomer powder (from GL biochem) was dissolved in 1; purchased GL biochem
T1 sequence (P05067 672-713 limits assumed): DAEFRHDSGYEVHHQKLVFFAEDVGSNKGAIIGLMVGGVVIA
Experimental: (§1) Fig. 3 Binding constant measurements of ZY-5-OMe (left), ZY-5-MT (middle), ZY-5-DT (right) with Aβ42 fibrils (top), and oligomers (bottom). The measurements were performed in 10 mM phosphate buffered saline (PBS), pH 7.4. The Kd curves were fitted in GraphPad Prism with one site-specific binding model. Equation: Y = Bmax × X/(Kd + X). [Aβ42 fibrils] = [Aβ42 oligomers] = 5 μM.
(§2) Preparation of the Aβ42 Fibrils and Aβ42 Oligomers
(§3) Aβ42 fibrils: 1 mg of commercial Aβ42 monomer powder (from GL biochem) was dissolved in 1
(§4) mL 1,1,1,3,3,3-hexafluoro-2-propanol (HFIP) at room temperature and incubated for 1h. The
(§5) resulting solution was divided equally into two Eppendorf tubes. The solution in each Eppendorf
(§6) tube containing 0.5 mg Aβ42 monomer was then evaporated overnight and dried by vacuum
(§7) centrifuge to generate monomeric films. 100 μM Aβ42 fibrils solution was prepared by dissolving
(§8) the 0.5 mg monomeric films in 1.1 mL PBS buffer (with final DMSO concentration less than 1%)
(§9) and stiring at 37 °C for 3 days.
(§10) Aβ42 oligomers: The 0.5 mg monomeric films were dissolved in 1.1 mL PBS buffer (with final
(§11) DMSO concentration less than 1%) and incubated at 4 °C overnight. The resulting solution was
(§12) then centrifuged at 3000 rpm for 15 mins to remove the insoluble aggregates. The clear supernatant
(§13) was then used for the following experiments. […]
(§14) In Vitro Saturation Binding Studies with Aβ42 Fibrils and Aβ42 Oligomers
(§15) To a solution of increasing concentrations of compounds, a fixed concentration of the generated
(§16) aggregated Aβ42 fibrils or Aβ42 oligomers solutions (5 to 15 μM) was added to yield a total volume
(§17) of 100 μL. Nonspecific binding was determined without compounds. The mixture was incubated
(§18) for 15 min at room temperature. All fluorescence data were obtained on a SpectraMax M2e plate
(§19) reader (Molecular Devices).

Aβ42 oligomers = target: T2, Aβ42 oligomers (Homo sapiens, UniProt P05067); assay: Fluorescence saturation binding assay with Aβ42 oligomers; conditions: for Kd / binding ratio, Oligomers: Aβ42 oligomers; for Kd: 10 mM PBS pH 7.4, one site-specific binding model; for binding ratio, Oligomers: from cross point between plateau and initial slope; for binding preference oligomers vs fibrils (from Kd values): lower Kd for Aβ oligomers than Aβ fibrils
T2 construct: 1 mg of commercial Aβ42 monomer powder (from GL biochem) was dissolved in 1; purchased GL biochem
T2 sequence (P05067 672-713 limits assumed): as above
Experimental: as §1, §2, §3, §4, §5, §6, §7, §8, §9, §10, §11, §12, §13, §14, §15, §16, §17, §18, §19

[1] = Log D by octanol-PBS partition assay; type: physicochemical; conditions: pH 7.4, fluorescence readout
Experimental: In order to confirm that the compounds can also bind to native Aβ species, brain sections collected from 9-month-old 5xFAD transgenic mice have been employed in the fluorescence imaging studies. […] The brain sections were first incubated with our compounds, followed by Congo Red (CR), which is a well-established fluorescent probe that can bind to Aβ plaques.[34] The treated brain sections were then imaged using fluorescence microscope. […] Immunostaining with the CF594-conjugated HJ 3.4 antibody (CF594-HJ3.4) was also performed to confirm that these six compounds can bind to Aβ species specifically in the brain sections (Fig. 5). Moreover, the log D values of the compounds were also measured by octanol-PBS partition assays.[35] […]
The Log D value was measured following a published procedure using slight modifications.4 In general, compounds in 0.5 mL octanol was subjected to partition with 0.5 mL octanol-saturated
PBS. The whole mixture was stirred vigorously for 5 min, and centrifuged at 2,000 rpm for 5 min.
The top octanol layer was separated for later fluorescence measurement. The remaining PBS layer was partitioned with 0.5 mL PBS-saturated octanol, and the second top octanol layer was then separated after vigorous stirring and centrifuging at 2,000 rpm for another 5 min. The two octanol layers’ fluorescence spectra were recorded. The log D value was calculated by the fluorescence intensity ratio at the compounds’ emission wavelength for the above two octanol extractions. […]

[2] = Alamar Blue cytotoxicity assay in N2a cells; type: cell-based, mouse; conditions: mouse, N2a (Neuro2A) neuroblastoma cells, up to 10 μM, 40 h, read-out: cell viability
Experimental: (§20) After confirming these amphiphilic compounds can bind to Aβ species both in vitro and ex vivo, we next investigated whether these compounds could attenuate the toxicity of the Cu–Aβ species, as the Cu^2+ ions were reported to promote the formation of neurotoxic soluble Aβ42 oligomers.[45,46] Firstly, the Alamar Blue cell viability assay was used to measure the cytotoxicity of the compounds at different concentrations ranging from 20 μM to 2 μM in mouse neuroblastoma N2a cells (Fig. 8). […] Considering its high binding affinity to both Aβ fibrils and oligomers, we also further tested its ability to alleviate Cu^2+–Aβ42-induced toxicity. […] The underlying mechanism is unclear, but we propose that these compounds might perform similarly to the toxic oligomers that bind to some cell membrane receptors or insert into the membrane lipids to form porous channels.
(§21) Alamar Blue assay was chosen for the cytotoxicity studies.3 Mouse neuroblastoma Neuro2A (N2A) cells were grown with DMEM/10% FBS in a petri dish at 37 °C in a humidified atmosphere with 5% CO2. Then N2A cells were seeded in a 96-well plate (1.0 × 10^4/well). After 24 h incubation, cell media was changed to DMEM/N-2, and N2A cells were incubated for another 1 h. Then the cells were treated with different concentrations of compounds for 40 h, Alamar Blue solution (10 μL) was added, and the cells were incubated for another 90 min at 37 °C. The fluorescence intensity of each well was measured at 590 nm (excitation wavelength = 560 nm).
(§22) For the Cu2+-Aβ-induced toxicity studies, cells were treated monomeric Aβ42, Cu2+, monomeric Aβ42 + Cu2+, and monomeric Aβ42 + Cu2+ + compounds, monomeric Aβ42 + Cu2+ + copper chelators (Me2HTACN or Me3TACN), respectively. After 40 h incubation, Alamar Blue solution (10 μL) was added, and the cells were incubated for another 90 min at 37 °C. The fluorescence intensity of each well was measured at 590 nm (excitation wavelength = 560 nm). […]

[3] = system: Cu2+–Aβ42 species in Neuro2A cells; assay: Cu2+-Aβ42-induced toxicity in Neuro2A cells (Alamar Blue); type: cell-based, mouse; conditions: [Aβ42] = [Cu2+] = 40 μM, compound 10 μM (ZY-12-OMe 5 μM), 40 h
Experimental: As mentioned above, compounds that are not cytotoxic at 10 μM, including ZY-12-MT, ZY-15-MT, ZY-15-OMe, ZY-17-MT, ZY-5-MT, ZY-5-DT, ZY-5-OMe, and ZY-12-OMe, were chosen for this study. Firstly, during the control studies, we observed that monomeric Aβ42 led to negligible neurotoxicity. Nevertheless, in the presence of both Cu^2+ and monomeric Aβ42, there was a significant cell death, which is likely due to the Cu^2+ associated neurotoxic Aβ42 oligomers formation.[46] […] According to the docking results, ZY-12-MT, ZY-15-OMe, ZY-15-MT, and ZY-5-OMe interact with Aβ42 tetramers mainly through residues His6, Asp7, Tyr10 (via hydrogen bonds), and Tyr10 (via π–π interactions). Some reports have also shown that His6, Asp7, and Tyr10 are potentially involved in the Cu–Aβ interactions, which explains why the compounds are able to attenuate the Cu–Aβ toxicity.[48]
Fig. 9 Cell viability results upon incubation of Neuro2A cells with monomeric Aβ42 in the presence or absence of metal ions and amphiphilic compounds. Concentrations: [Aβ42] = 40 μM, [Cu^2+] = 40 μM, [ZY-12-MT] = [ZY-15-OMe] = [ZY-15-MT] = [ZY-17-MT] = [ZY-5-OMe] = [ZY-5-MT] = [ZY-5-DT] = 10 μM, [ZY-12-OMe] = 5 μM. The error bars represent the standard deviation from five independent experiments, and the statistical analysis was evaluated according to one-way ANOVA (*p < 0.05).
Alamar Blue assay was chosen for the cytotoxicity studies.3 Mouse neuroblastoma Neuro2A (N2A) cells were grown with DMEM/10% FBS in a petri dish at 37 °C in a humidified atmosphere with 5% CO2. Then N2A cells were seeded in a 96-well plate (1.0 × 10^4/well). After 24 h incubation, cell media was changed to DMEM/N-2, and N2A cells were incubated for another 1 h. […]
as §22
10. The effect of copper chelators on Cu2+-Aβ42 neurotoxicity
Figure S8. Cell viability results upon incubation of Neuro2A cells with 10 μM copper chelators (Me2HTACN or Me3TACN) in the presence or absence of 40 μM (Aβ42 + Cu2+). The error bars represent the standard deviation from five independent experiments, and the statistical analysis was evaluated according to one-way ANOVA. […]

[4] = target: T3, Aβ plaques in 5xFAD mice brain sections (Homo sapiens, UniProt P05067); assay: Fluorescence imaging of 5xFAD mouse brain sections, colocalization with Congo Red; conditions: 9-month-old 5xFAD brain sections; compound 5 μM, Congo red 2.5 μM
T3 construct: aggregated Aβ species were commonly observed in brain sections from 5xFAD transgenic mice; tissue Jackson Laboratories; host or cells: brain sections of 9-month-old 5xFAD transgenic mice
T3 sequence (P05067 672-713 limits assumed): as above
Experimental: In order to confirm that the compounds can also bind to native Aβ species, brain sections collected from 9-month-old 5xFAD transgenic mice have been employed in the fluorescence imaging studies. […] The brain sections were first incubated with our compounds, followed by Congo Red (CR), which is a well-established fluorescent probe that can bind to Aβ plaques.[34] The treated brain sections were then imaged using fluorescence microscope. […] Immunostaining with the CF594-conjugated HJ 3.4 antibody (CF594-HJ3.4) was also performed to confirm that these six compounds can bind to Aβ species specifically in the brain sections (Fig. 5). Moreover, the log D values of the compounds were also measured by octanol-PBS partition assays.[35]
Fig. 4 Fluorescence microscopy images of 5xFAD mice brain sections co-incubated with amphiphilic compounds (top), Congo red (middle) and merged images (bottom, along with the Parson's correlation coefficients R). Concentrations: [amphiphilic compounds] = 5 μM, [Congo red] = 2.5 μM; scale bar: 125 μm. TEXT PRINTED IN THE PICTURE: ZY-5-MT: Merged R= 0.84 | ZY-12-DT: Merged R= 0.52 | ZY-12-OMe: Merged R= 0.77 | ZY-15-OMe: Merged R= 0.77 | ZY-17-DT: Merged R= 0.77 | ZY-17-OMe: Merged R= 0.72 […]
Histological Staining of 5×FAD Mice Brain Sections
5xFAD transgenic mice brain sections were blocked with bovine serum albumin (2% BSA in PBS, pH 7.4, 10 min). Then the mice brain sections were transferred to a PBS solution of the compound and incubated for 1 h. After which, the brain sections were transferred to a PBS solution of Congo Red or antibody HJ 3.4 (Professor David Holtzman, 1 μg/ml) and incubated for another 1 h. Then, the brain sections were treated with BSA again (5 min) followed by washing with PBS (3 × 2 min), DI water (3 × 2 min). Finally, the mice brain sections were mounted with non-fluorescent mounting media, and the images were obtained by using EVOS FL Auto 2. ImageJ Fiji program was used for colocalization analysis and determination of the Pearson’s correlation coefficient. The primary

[5] = system: mouse neuroblastoma N2a cells; assay: Alamar Blue cytotoxicity assay in N2a cells; type: cell-based; conditions: 2 to 20 μM
Experimental: as §20, §21, §22

[6] = Aβ42 fibrils, 10 mM PBS pH 7.4, one site-specific binding model, read-out: Kd, Fibrils

Structure (SMILES)	Kd (Aβ42 fibrils; [6]) [µM]	binding ratio, Fibrils (Aβ42 fibrils; Aβ42 fibrils)	Kd (Aβ42 oligomers) [µM]	binding ratio, Oligomers (Aβ42 oligomers)	logD [1]	viability at 40 h [2] [%]	effect on Cu2+–Aβ42-induced toxicity (cell viability, in words) [3]	binding preference oligomers vs fibrils (from Kd values) (Aβ42 oligomers)	Pearson's correlation coefficient R, colocalization with Congo Red [4]	cytotoxicity (in words) [5]	Kd (Aβ42 fibrils; another trial, [Aβ42 fibrils] = 5 μM, PBS pH 7.4 (Fig. S5), read-out: Kd, Aβ42 fibrils, another trial) [µM]	selectivity to Aβ oligomers (times higher than that for Aβ fibrils) (Aβ42 oligomers; from Kd values fibrils vs oligomers) [times]
CN1CCN(C)CCN(Cc2cc(/C=C/c3ccc(-c4ccc(N(C)C)cc4)s3)cc(CN3CCN(C)CCN(C)CC3)c2O)CC1 [ZY-5-DT]	1.67	1.6	2.09	1.7	1.03 ± 0.122	> 80						
CN1CCN(C)CCN(C)CC1 [Me3TACN, 1,4,7-trimethyl-1,4,7-triazacyclononane, reference compound]							not able to alleviate the neurotoxicity					
CN1CCN(C)CCN(Cc2cc(/C=C/c3ccc(-c4ccc(C=O)cc4)s3)cc(CN3CCN(C)CCN(C)CC3)c2O)CC1 [ZY-15-DT]	1.27	2.9	4.55	1.2	1.16 ± 0.026							
CN1CCNCCN(C)CC1 [Me2HTACN, 1,4-dimethyl-1,4,7-triazacyclononane, reference compound]							not able to alleviate the neurotoxicity					
CN1CCN(C)CCN(Cc2cc(-c3ccc(/C=C/c4ccc(N(C)C)cc4)s3)cc(CN3CCN(C)CCN(C)CC3)c2O)CC1 [ZY-12-DT]	1.38	3.5	0.67	3.7	1.13 ± 0.045			higher binding affinity to oligomers over fibrils	0.52	higher cytotoxicity than others		
COc1cc(OC)cc(-c2ccc(/C=C/c3ccc(O)c(CN4CCN(C)CCN(C)CC4)c3)cc2)c1 [ZY-17-MT]	0.94	5.5	2.08	2.0	0.81 ± 0.079	> 80						
CN1CCN(C)CCN(Cc2cc(/C=C/c3ccc(-c4ccc(N(C)C)cc4)s3)ccc2O)CC1 [ZY-5-MT]	1.82	2.1	0.46	4.9	0.997 ± 0.031	> 80		higher binding affinity to oligomers over fibrils	0.84		1.43	3.9
